# Test results from US5541162A, “Glutathione derivatives” (Senju Pharmaceutical Co., Ltd., priority 1990, dated 1996).
# Experiments:
# [1] = test system: acetaminophen-induced liver damage; assay: Effect on acetaminophen-induced liver damage; assay type: in vivo, rat; details: for s-GOT, mean ± S.E. / s-GPT, mean ± S.E. / s-GOT percent inhibition (figure in parentheses) / s-GPT percent inhibition (figure in parentheses): male SD rats; for s-GOT, mean ± S.E. / s-GPT, mean ± S.E.: 0.5 mmole/kg orally 1 hour before acetaminophen 300 mg/kg i.p., serum after 24 hours; for s-GOT percent inhibition (figure in parentheses) / s-GPT percent inhibition (figure in parentheses): vs physiological saline control
# Procedure: Method: Male SD rats (body weights about 180 g) purchased from Shizuoka Laboratory Animal Center were used as test animals. The test substance was orally administered (0.5 mmole/kg), and after 1 hour, acetaminophen 300 mg/kg was intraperitoneally administered. After 24 hours, the blood was drawn from the abdominal aorta of each rat and the serum was separated and determined for s-GOT and GPT.
# [2] = test system: carrageenin-induced conjunctival edema; assay: Effect on carrageenin-induced conjunctival edema; assay type: in vivo, rat; details: male Wistar rats; for % Inhibition (conjunctival edema): 30 mg/kg i.v., vs physiological saline control; for Conjunctival edema weight (mg ± S.E): test substance 30 mg/5 ml/kg i.v. 1 minute before subconjunctival 1% carrageenin, n=10
# Procedure: Method: Male Wistar rats (body weight about 120 g) purchased from Shizuoka Laboratory Animal Center were used as test animals. Each animal was anesthesized with pentobarbital 6 mg/kg i.p. and a solution of the test substance in physiological saline was intravenously administered (30 mg/5 ml/kg). After 1 minute, 50 μl of a 1% solution of carrageenin in physiological saline was injected subconjunctivally. After 3 minutes, the rat was sacrificed and the carrageenin-induced conjunctival edema was weighed.
# [3] = test system: rat back passive anaphylactic reaction; assay: Effect on rat back passive anaphylactic reaction; assay type: in vivo; details: male Wistar rats; for % Inhibition (passive anaphylactic reaction): 30 mg/kg i.v., vs physiological saline control; for Absorbance (extracted Evans blue dye), mean ± S.E.: 30 mg/kg into caudal vein 1 minute before antigen, dye extracted after 30 minutes, n=5
# Procedure: Method: Male Wistar rats (body weight about 130 g) purchased from Shizuoka Laboratory Animal Center were used as test animals. The back hair of each rat was clipped off and the antiserum was injected intradermally at the back. After 3 days, the test substance 30 mg/kg was injected into the caudal vein (control: physiological saline). One minute later, 1 ml of a 50:50 mixture of 1% egg white albumin and 2% Evans blue in physiological saline was intravenously administered as the antigen to induce a passive anaphylactic reaction. After 30 minutes, the rat was sacrificed, the stained area of the rat back was isolated the dye was extracted with 10 ml of formamide to determine the amount of the dye.
Compound,"Efficacy on acetaminophen-induced liver damage (in words) ([1]; 0.5 mmole/kg orally, rats)","s-GOT, mean ± S.E. [1]","s-GPT, mean ± S.E. [1]",s-GOT percent inhibition (figure in parentheses) ([1]; 0.5 mmole/kg orally),s-GPT percent inhibition (figure in parentheses) ([1]; 0.5 mmole/kg orally),% Inhibition (conjunctival edema) [2],Conjunctival edema weight (mg ± S.E) [2],% Inhibition (passive anaphylactic reaction) [3],"Absorbance (extracted Evans blue dye), mean ± S.E. [3]"
"CCCCOC(=O)CC(CSC[C@H](NC(=O)CC[C@H](N)C(=O)O)C(=O)NCC(=O)OC(C)C)C(=O)OCCCC (stereo partly drawn) [R1 = C3 H7, R2 = R3 = C4 H9, S-(2,3-Dicarbo-n-butoxypropyl)glutathione isopropyl ester]",significant effect,309 ± 105,86 ± 31,88.4%,70.9%,–,–,–,–
S-[1-(or 2)Carboxy-2-(or 1)carbamoylethyl]glutathione,–,–,–,–,–,9.6%,64.1 ± 4.2 mg,43.4%,0.494 ± 0.066
"CCN1C(=O)CC(SC[C@H](NC(=O)CC[C@H](N)C(=O)O)C(=O)NCC(=O)O)C1=O (stereo partly drawn) [R1 = H, R2 R3 = N--C2 H5, S-[N-Ethyl-2,5-dioxopyrrolidin-3-yl]glutathione]",–,–,–,–,–,9.9%,63.9 ± 3.6 mg,41.1%,0.514 ± 0.050
"CCCCOC(=O)CC(SC[C@H](NC(=O)CC[C@H](N)C(=O)O)C(=O)NCC(=O)OC(C)C)C(=O)OCCCC (stereo partly drawn) [R1 = C3 H7, R2 = R3 = OC4 H9, S-(1,2-Dicarbo-n-butoxyethyl)glutathione isopropyl ester]",–,178 ± 64,45 ± 11,95.9%,96.8%,1.9%,77.4 ± 4.0 mg,43.6%,0.492 ± 0.094
"CC(C)OC(=O)CNC(=O)[C@H](CSC(CC(N)=O)C(N)=O)NC(=O)CC[C@H](N)C(=O)O (stereo partly drawn) [R1 = C3 H7, R2 = R3 = NH2, S-(1,2-Dicarbamoylethyl)glutathioneisopropyl ester]",–,1760 ± 911,740 ± 394,59.8%,46.7%,26.2%,58.2 ± 1.4 mg,43.6%,0.492 ± 0.083
"S-(1,2-Dicarboxyethyl)glutathioneisopropyl ester [R1 = C3 H7, R2 = R3 = OH]",–,929 ± 500,404 ± 278,78.8%,70.9%,19.0%,63.9 ± 3.6 mg,47.7%,0.457 ± 0.055
"CC(C)OC(=O)CNC(=O)[C@H](CSC1CC(=O)NC1=O)NC(=O)CC[C@H](N)C(=O)O (stereo partly drawn) [R1 = C3 H7, R2 R3 = NH, S-[(1,2-Dicarboximido)ethyl]glutathione isopropyl ester]",–,–,–,–,–,21.4%,62.0 ± 1.6 mg,26.5%,0.642 ± 0.141
"N[C@@H](CCC(=O)N[C@@H](CSC1CC(=O)NC1=O)C(=O)NCC(=O)O)C(=O)O (stereo partly drawn) [R1 = H, R2 R3 = NH, S-[(1,2-Dicarboximido)ethyl]glutathione]",–,1288 ± 316,351 ± 82,54.0%,50.1%,9.9%,63.9 ± 4.1 mg,47.4%,0.459 ± 0.104
"CCOC(=O)CC(SC[C@H](NC(=O)CC[C@H](N)C(=O)O)C(=O)NCC(=O)OC(C)C)C(=O)OCC (stereo partly drawn) [R1 = C3 H7, R2 = R3 = OC2 H5, γ-L-Glutamyl-[S-(1,2-dicarbethoxyethyl)]-L-cystinylglycine isopropyl ester]",–,394 ± 178,111 ± 51,91.0%,92.0%,23.7%,60.2 ± 1.2 mg,44.6%,0.484 ± 0.093
"NC(=O)CC(SC[C@H](NC(=O)CC[C@H](N)C(=O)O)C(=O)NCC(=O)O)C(N)=O (stereo partly drawn) [R1 = H, R2 = R3 = NH2, S-(1,2-Dicarbamoylethyl)glutathione]",–,591 ± 155,147 ± 48,78.9%,79.1%,5.4%,67.1 ± 3.8 mg,35.3%,0.565 ± 0.162
